Each compound was assayed against T1, hGPR40 (Homo sapiens, UniProt O14842) (assay: FDSS-Based Intracellular Calcium Assay). Conditions: cells expressing GPR40, intracellular Ca2+ response.
T1 construct: 3x FLAG; expressed in transfected cells
Type: cell-based
Outline: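 Flag-tagged GPR40-expressing cells plated overnight in serum-free, phenol red-free DMEM. Compounds added from DMSO stocks, diluted in assay buffer and added as 3x solution. Intracellular Ca^2+ flux read by fluorescence on an FDSS reader.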

T1 sequence (O14842 whole entry): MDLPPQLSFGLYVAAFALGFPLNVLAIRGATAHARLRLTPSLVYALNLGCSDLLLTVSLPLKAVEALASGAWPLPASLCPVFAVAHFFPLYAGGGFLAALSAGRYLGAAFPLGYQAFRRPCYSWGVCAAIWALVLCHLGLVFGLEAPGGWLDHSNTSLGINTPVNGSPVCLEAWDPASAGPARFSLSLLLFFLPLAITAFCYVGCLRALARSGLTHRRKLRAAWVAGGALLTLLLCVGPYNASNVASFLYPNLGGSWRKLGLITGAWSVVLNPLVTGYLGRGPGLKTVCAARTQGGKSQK

EC50 | SMILES
1340 nM | COc1ccc(F)c(-c2ccc(Cc3ccc(N4N=C(C(F)(F)F)C(C)(C)C4CC(=O)O)cc3)c(C)c2)c1 (single isomer, unassigned) [Example 50, Isomer 2, 2-(1-(4-((2′-fluoro-5′-methoxy-3-methylbiphenyl-4-yl)methyl)phenyl)-4,4-dimethyl-3-(trifluoromethyl)-4,5-dihydro-1H-pyrazol-5-yl)acetic acid]
350 nM | COc1ccc(F)c(-c2ccc(Cc3ccc(N4N=C(C(F)(F)F)CC4CC(=O)O)cc3)cc2C)c1 (single isomer, unassigned) [Example 22, Isomer 2, 2-(1-(4-((2′-fluoro-5′-methoxy-2-methylbiphenyl-4-yl)methyl)phenyl)-3-(trifluoromethyl)-4,5-dihydro-1H-pyrazol-5-yl)acetic acid]
120 nM | COc1cccc(-c2ccc(Cc3ccc(N4N=C(C(F)(F)F)CC4CC(=O)O)cc3)c(C)c2)c1 (single isomer, unassigned) [Example 26, Isomer 2, 2-(1-(4-((3′-methoxy-3-methylbiphenyl-4-yl)methyl)phenyl)-3-(trifluoromethyl)-4,5-dihydro-1H-pyrazol-5-yl)acetic acid]
165 nM | COc1ccc(F)c(-c2ccc(Oc3ccc(N4N=C(C(F)(F)F)CC4CC(=O)O)cc3)c(C)c2)c1 (single isomer, unassigned) [Example 14, Isomer 1, 2-(1-(4-(2′-fluoro-5′-methoxy-3-methylbiphenyl-4-yloxy)phenyl)-3-(trifluoromethyl)-4,5-dihydro-1H-pyrazol-5-yl)acetic acid]
90 nM | COc1ccc(F)c(-c2ccc(Cc3ccc(N4N=C(C(F)(F)F)CC4CC(=O)O)cc3)c(F)c2)c1 (single isomer, unassigned) [Example 19, Isomer 2, 2-(1-(4-((2′,3-difluoro-5′-methoxybiphenyl-4-yl)methyl)phenyl)-3-(trifluoromethyl)-4,5-dihydro-1H-pyrazol-5-yl)acetic acid]
350 nM | COc1ccc(Cl)c(-c2ccc(Cc3ccc(N4N=C(C(F)(F)F)CC4CC(=O)O)cc3)cc2C)c1 (racemic) [Example 23, 2-(1-(4-((2′-chloro-5′-methoxy-2-methylbiphenyl-4-yl)methyl)phenyl)-3-(trifluoromethyl)-4,5-dihydro-1H-pyrazol-5-yl)acetic acid]
150 nM | COc1ccc(F)c(-c2ccc(Cc3ccc(N4N=C(C#N)CC4CC(=O)O)cc3)c(C)c2)c1 (single isomer, unassigned) [Example 34, Isomer 1, 2-(3-cyano-1-(4-((2′-fluoro-5′-methoxy-3-methylbiphenyl-4-yl)methyl)phenyl)-4,5-dihydro-1H-pyrazol-5-yl)acetic acid]
70 nM | COc1ccc(F)c(-c2ccc(Cc3ccc(N4N=C(C(F)(F)F)C(C(C)C)C4CC(=O)O)cc3)c(C)c2)c1 (single isomer, unassigned) [Example 45, Isomer 2, 2-(1-(4-((2′-fluoro-5′-methoxy-3-methylbiphenyl-4-yl)methyl)phenyl)-4-isopropyl-3-(trifluoromethyl)-4,5-dihydro-1H-pyrazol-5-yl)acetic acid]

The next lines start with the compound.

SMILES | EC50
COc1ccc(F)c(-c2ccc(Cc3ccc(N4N=C(C(F)(F)F)C(C5CC5)C4CC(=O)O)cc3)c(C)c2)c1 (single isomer, unassigned) [Example 43, Isomer 2, 2-(4-cyclopropyl-1-(4-((2′-fluoro-5′-methoxy-3-methylbiphenyl-4-yl)methyl)phenyl)-3-(trifluoromethyl)-4,5-dihydro-1H-pyrazol-5-yl)acetic acid] | 90 nM
COc1ccc(F)c(-c2ccc(Cc3ccc(N4N=C(c5cccc(Cl)c5)[C@@H](C)[C@@H]4CC(=O)O)cc3)c(C)c2)c1 (single isomer, unassigned) [Example 68, isomer 1] | 15 nM
COc1ccc(F)c(-c2ccc(Cc3ccc(N4N=C(C(F)(F)F)C(CO)C4CC(=O)O)cc3)c(C)c2)c1 (single isomer, unassigned) [Example 53, Isomer 1, 2-(1-(4-((2′-fluoro-5′-methoxy-3-methyl-[1,1′-biphenyl]-4-yl)methyl)phenyl)-4-(hydroxymethyl)-3-(trifluoromethyl)-4,5-dihydro-1H-pyrazol-5-yl)acetic acid, trans-diastereomer] | 170 nM
Cc1cc(-c2cc(C#N)ccc2F)ccc1Cc1ccc(N2N=C(C#N)CC2CC(=O)O)cc1 (racemic) [Example 39, 2-(3-cyano-1-(4-((5′-cyano-2′-fluoro-3-methylbiphenyl-4-yl)methyl)phenyl)-4,5-dihydro-1H-pyrazol-5-yl)acetic acid] | 200 nM
COc1ccc(F)c(-c2ccc(Cc3ccc(N4N=C(C(F)(F)F)C(c5ccccc5)C4CC(=O)O)cc3)c(C)c2)c1 (single isomer, unassigned) [Example 47, Isomer 2, 2-(1-(4-((2′-fluoro-5′-methoxy-3-methylbiphenyl-4-yl)methyl)phenyl)-4-phenyl-3-(trifluoromethyl)-4,5-dihydro-1H-pyrazol-5-yl)acetic acid] | 5930 nM
Cc1cc(-c2ccncc2)ccc1Cc1ccc(N2N=C(C(F)(F)F)[C@@H](C)[C@@H]2CC(=O)O)cc1 [Example 78, 2-((4S,5S)-4-methyl-1-(4-(2-methyl-4-(pyridin-4-yl)benzyl)phenyl)-3-(trifluoromethyl)-4,5-dihydro-1H-pyrazol-5-yl)acetic acid] | 8330 nM
COc1ccc(OC)c(-c2ccc(Cc3ccc(N4N=C(C#N)CC4CC(=O)O)cc3)c(C)c2)c1 (single isomer, unassigned) [Example 49, Isomer 1, 2-(3-cyano-1-(4-((2′,5′-dimethoxy-3-methylbiphenyl-4-yl)methyl)phenyl)-4,5-dihydro-1H-pyrazol-5-yl)acetic acid] | 225 nM
Cc1cc(Cc2ccc(N3N=C(C(F)(F)F)CC3CC(=O)O)cc2)ccc1Br (racemic) [Example 18, 2-(1-(4-(4-bromo-3-methylbenzyl)phenyl)-3-(trifluoromethyl)-4,5-dihydro-1H-pyrazol-5-yl)acetic acid] | 455 nM
COc1ncccc1-c1ccc(Cc2ccc(N3N=C(C(F)(F)F)[C@@H](C)[C@@H]3CC(=O)O)cc2)c(C)c1 [Example 77, 2-((4S,5S)-1-(4-(4-(2-methoxypyridin-3-yl)-2-methylbenzyl)phenyl)-4-methyl-3-(trifluoromethyl)-4,5-dihydro-1H-pyrazol-5-yl)acetic acid] | 5370 nM
COc1ccc(F)c(-c2ccc(Cc3ccc(N4N=C(C(F)(F)F)C(c5ccccc5)C4CC(=O)O)cc3)c(C)c2)c1 (single isomer, unassigned) [Example 47, Isomer 1, 2-(1-(4-((2′-fluoro-5′-methoxy-3-methylbiphenyl-4-yl)methyl)phenyl)-4-phenyl-3-(trifluoromethyl)-4,5-dihydro-1H-pyrazol-5-yl)acetic acid] | 890 nM
COc1ccc(F)c(-c2ccc(Cc3ccc(N4N=C(C(F)(F)F)C(CC(C)C)C4CC(=O)O)cc3)c(C)c2)c1 (single isomer, unassigned) [Example 41, Isomer 2, 2-(1-(4-((2′-fluoro-5′-methoxy-3-methylbiphenyl-4-yl)methyl)phenyl)-4-isobutyl-3-(trifluoromethyl)-4,5-dihydro-1H-pyrazol-5-yl)acetic acid] | 95 nM
COc1ccc(F)c(-c2ccc(Cc3ccc(N4N=C(c5ccc(F)cc5)[C@@H](C)[C@@H]4CC(=O)O)cc3)c(C)c2)c1 (single isomer, unassigned) [Example 67, isomer 2] | 800 nM

Source: patent US9656963B2 (BRISTOL-MYERS SQUIBB COMPANY, priority 2012, dated 2017)
